Reference: patent US20260007681A1, “INDOLE DERIVATIVES AS ESTROGEN RECEPTOR DEGRADERS” (REGENTS OF THE UNIVERSITY OF MICHIGAN, priority 2022, published 2026)
pIC50: −log10 of the molar value. Like-named read-outs stand apart in the source and are kept apart here.

Experiments:
ER = ER (Homo sapiens (Human), UniProt P03372); assay: In-cell western blot analysis of relative ER percentage (Compounds B1-B278); format: cell-based; conditions: ER degradation, 16 hours, read-out: ICW DC50
Procedure: In-cell western blot analysis. Cells are seeded in multi-well plates (e.g., at 40,000 or 10,000 cells/well). Diluted compounds at certain concentration are added (final 0.5% DMSO) and cells are incubated for […] (e.g., 16 hours). Formaldehyde (e.g., PBS:FA=9:1) is added and followed by washing with PBS. The cells are blocked with Licor blocking buffer (Li-Cor). The relative ER percentage in treated cells are obtained by comparing the values of treated wells to those in untreated and DMSO-treated wells as 100%.
In-cell western blot analysis. a. seed cells in black-sided/clear bottom 96- or 384-well plates at 40,000 or 10,000 cells/well, overnight; b. add diluted compounds (final 0.5% DMSO), 16 hours. 16 h later, remove medium, add 100 μL or 25 μL of 3.7-4.0% formaldehyde (PBS:FA=9:1), RT 20 min, no shaking; c. wash with PBS, and permeabilized with 100 μL or 25 μL/well of 1×PBS+0.1% Triton X-100 10 minutes; d. block with 100 μL or 25 μL Licor blocking buffer (Li-Cor), RT 1 h, moderate shaking; d. Add 100 μL or 25 μL of anti-ER (cs-8644, 1:500-1,000)+GAPDH(Millipore MAB374, 1:1000) in Block+0.05% Tween 20. RT 2 h, gentle shaking. Negative control: cells plus secondary antibodies (no primary antibodies); e. wash×4 with PBS +0.05-0.1% Tween 20, gentel shaking; f. anti-rabbit-680 and anti-mouse-800 (both 1:1000 in LiCor block +0.05% Tween20, RT 1 h, gentle shaking, no light. LI-COR: 0.2% to reduce background; g. wash×4 with PBS+0.05% Tween 20, gental shaking; h. add 100 μL or 25 μL of PBS to each well and read on CLX plate reader. The relative ER percentage in treated cells were obtained by comparing the values of treated wells to those in untreated and DMSO-treated wells as 100%.

[1] = Cell growth assay (WST-8) (Compounds B1-B278); format: cell-based; conditions: T47D cell line, WST-8, 4 days, read-out: Cell Growth Inhibition in T47D cell line IC50
Procedure, shortened: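 Cells seeded at 1500/well overnight, treated one day later with compound doses for 4 days, then 10% WST-8 added for 2.5 h at 37° C in CO2. Absorbance at 450 nm, expressed relative to vehicle control over three independent repeats.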

ER, sequence (P03372 whole entry): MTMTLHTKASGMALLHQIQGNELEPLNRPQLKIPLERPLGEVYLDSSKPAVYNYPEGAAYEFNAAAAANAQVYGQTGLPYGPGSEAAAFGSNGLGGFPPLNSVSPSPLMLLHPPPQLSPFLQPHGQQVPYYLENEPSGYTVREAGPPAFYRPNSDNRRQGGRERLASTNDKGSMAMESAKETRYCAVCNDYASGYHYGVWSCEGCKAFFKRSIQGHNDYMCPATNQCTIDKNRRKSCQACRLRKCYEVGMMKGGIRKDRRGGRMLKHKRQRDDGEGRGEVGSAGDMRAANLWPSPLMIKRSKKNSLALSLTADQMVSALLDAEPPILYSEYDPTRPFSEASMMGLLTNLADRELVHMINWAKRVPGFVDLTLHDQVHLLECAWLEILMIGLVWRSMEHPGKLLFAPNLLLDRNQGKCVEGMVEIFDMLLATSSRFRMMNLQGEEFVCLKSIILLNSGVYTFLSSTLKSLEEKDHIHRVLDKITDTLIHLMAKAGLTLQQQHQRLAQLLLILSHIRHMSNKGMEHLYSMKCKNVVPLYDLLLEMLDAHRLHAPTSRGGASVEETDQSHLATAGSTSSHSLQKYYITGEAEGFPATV

## COc1cc(N2CCC3(CCN(C(=O)CN4Cc5cc6c(cc5C4)C(=O)N(C4CCC(=O)NC4=O)C6=O)CC3)CC2)ccc1[C@@H]1c2[nH]c3ccccc3c2C[C@@H](C)N1CC(F)F (stereo partly drawn) [Compound B128, 6-(2-(9-(4-((1R,3R)-2-(2,2-difluoroethyl)-3-methyl-2,3,4,9-tetrahydro-1H-pyrido[3,4-b]indol-1-yl)-3-methoxyphenyl)-3,9-diazaspiro[5.5]undecan-3-yl)-2-oxoethyl)-2-(2,6-dioxopiperidin-3-yl)-6,7-dihydropyrrolo[3,4-f]isoindole-1,3(2H,5H)-dione]
ER
  DC50: < 10 nM
[1]; 96 h
  pIC50: 8.00 to 9.00

## COc1cc(N2CC3(CCC(CN4CCC5(CC4)COc4c5ccc5c4CN(C4CCC(=O)NC4=O)C5=O)CC3)C2)ccc1[C@@H]1c2[nH]c3ccccc3c2C[C@@H](C)N1CC(F)F (stereo partly drawn) [Compound B129, 3-(1′-((2-(4-((1R,3R)-2-(2,2-difluoroethyl)-3-methyl-2,3,4,9-tetrahydro-1H-pyrido[3,4-b]indol-1-yl)-3-methoxyphenyl)-2-azaspiro[3.5]nonan-7-yl)methyl)-6-oxo-6,8-dihydro-2H,7H-spiro[furo[2,3-e]isoindole-3,4′-piperidin]-7-yl)piperidine-2,6-dione]
ER
  DC50: 10 to 100 nM
[1]; 96 h
  pIC50: > 9.00

## COc1c2c(cc3c1CN(C1CCC(=O)NC1=O)C3=O)CN(CC(=O)N1CCC3(CC1)CCN(c1cc(F)c([C@@H]4c5[nH]c6ccccc6c5C[C@@H](C)N4CC(F)F)c(F)c1)CC3)C2 (stereo partly drawn) [Compound B130, 3-(6-(2-(9-(4-((1R,3R)-2-(2,2-difluoroethyl)-3-methyl-2,3,4,9-tetrahydro-1H-pyrido[3,4-b]indol-1-yl)-3,5-difluorophenyl)-3,9-diazaspiro[5.5]undecan-3-yl)-2-oxoethyl)-4-methoxy-1-oxo-3,5,6,7-tetrahydropyrrolo[3,4-f]isoindol-2(1H)-yl)piperidine-2,6-dione]
ER
  DC50: 10 to 100 nM
[1]; 96 h
  pIC50: 8.00 to 9.00

## C[C@@H]1Cc2c([nH]c3ccccc23)[C@@H](c2cnc(N3CCC4(CC3)CC(CN3CCN5c6cc7c(cc6OC[C@@H]5C3)C(=O)N(C3CCC(=O)NC3=O)C7)C4)nc2)N1CC(F)F (stereo partly drawn) [Compound B135, 3-((S)-3-((7-(5-((1R,3R)-2-(2,2-difluoroethyl)-3-methyl-2,3,4,9-tetrahydro-1H-pyrido[3,4-b]indol-1-yl)pyrimidin-2-yl)-7-azaspiro[3.5]nonan-2-yl)methyl)-8-oxo-1,2,3,4,4a,5,8,10-octahydro-9H-pyrazino[1′,2′:4,5][1,4]oxazino[2,3-f]isoindol-9-yl)piperidine-2,6-dione]
ER
  DC50: < 10 nM
[1]; 96 h
  pIC50: 8.00 to 9.00

## C[C@@H]1Cc2c([nH]c3ccccc23)[C@@H](c2cnc(N3CCC4(CCC(CN5CCN6c7cc8c(cc7OC[C@@H]6C5)C(=O)N(C5CCC(=O)NC5=O)C8)CC4)CC3)nc2)N1CC(F)F (stereo partly drawn) [Compound B136, 3-((S)-3-((3-(5-((1R,3R)-2-(2,2-difluoroethyl)-3-methyl-2,3,4,9-tetrahydro-1H-pyrido[3,4-b]indol-1-yl)pyrimidin-2-yl)-3-azaspiro[5.5]undecan-9-yl)methyl)-8-oxo-1,2,3,4,4a,5,8,10-octahydro-9H-pyrazino[1′,2′:4,5][1,4]oxazino[2,3-f]isoindol-9-yl)piperidine-2,6-dione]
ER
  DC50: 10 to 100 nM
[1]; 96 h
  pIC50: < 8.00

## C[C@@H]1Cc2c([nH]c3ccccc23)[C@@H](c2cnc(N3CCC4(CCC(CN5CCN6c7cc8c(cc7OC[C@@H]6C5)C(=O)N(C5CCC(=O)NC5=O)C8)CC4)CC3)nc2)N1CC(C)(C)F (stereo partly drawn) [Compound B137, 3-((S)-3-((3-(5-((1R,3R)-2-(2-fluoro-2-methylpropyl)-3-methyl-2,3,4,9-tetrahydro-1H-pyrido[3,4-b]indol-1-yl)pyrimidin-2-yl)-3-azaspiro[5.5]undecan-9-yl)methyl)-8-oxo-1,2,3,4,4a,5,8,10-octahydro-9H-pyrazino[1′,2′:4,5][1,4]oxazino[2,3-f]isoindol-9-yl)piperidine-2,6-dione]
ER
  DC50: 10 to 100 nM
[1]; 96 h
  pIC50: < 8.00

## C[C@@H]1Cc2c([nH]c3ccccc23)[C@@H](c2cnc(N3CCC4(CCC(N5CCN6c7cc8c(cc7OC[C@@H]6C5)C(=O)N(C5CCC(=O)NC5=O)C8)CC4)CC3)nc2)N1CC(F)F (stereo partly drawn) [Compound B138, 3-((S)-3-(3-(5-((1R,3R)-2-(2,2-difluoroethyl)-3-methyl-2,3,4,9-tetrahydro-1H-pyrido[3,4-b]indol-1-yl)pyrimidin-2-yl)-3-azaspiro[5.5]undecan-9-yl)-8-oxo-1,2,3,4,4a,5,8,10-octahydro-9H-pyrazino[1′,2′:4,5][1,4]oxazino[2,3-f]isoindol-9-yl)piperidine-2,6-dione]
ER
  DC50: 10 to 100 nM
[1]; 96 h
  pIC50: 8.00 to 9.00

## C[C@@H]1Cc2c([nH]c3ccccc23)[C@@H](c2cnc(N3CCC4(CCC(N5CCN6c7cc8c(cc7OC[C@@H]6C5)C(=O)N(C5CCC(=O)NC5=O)C8)CC4)CC3)nc2)N1CC(C)(C)F (stereo partly drawn) [Compound B139, 3-((S)-3-(3-(5-((1R,3R)-2-(2-fluoro-2-methylpropyl)-3-methyl-2,3,4,9-tetrahydro-1H-pyrido[3,4-b]indol-1-yl)pyrimidin-2-yl)-3-azaspiro[5.5]undecan-9-yl)-8-oxo-1,2,3,4,4a,5,8,10-octahydro-9H-pyrazino[1′,2′:4,5][1,4]oxazino[2,3-f]isoindol-9-yl)piperidine-2,6-dione]
ER
  DC50: < 10 nM
[1]; 96 h
  pIC50: 8.00 to 9.00

## COc1cc(N2CCC3(CC2)CC(CN2CCC4(CC2)COc2c4ccc4c2CN(C2CCC(=O)NC2=O)C4=O)C3)ccc1[C@@H]1c2[nH]c3ccccc3c2C[C@@H](C)N1CC(F)F (stereo partly drawn) [Compound B140, 3-(1′-((7-(4-((1R,3R)-2-(2,2-difluoroethyl)-3-methyl-2,3,4,9-tetrahydro-1H-pyrido[3,4-b]indol-1-yl)-3-methoxyphenyl)-7-azaspiro[3.5]nonan-2-yl)methyl)-6-oxo-6,8-dihydro-2H,7H-spiro[furo[2,3-e]isoindole-3,4′-piperidin]-7-yl)piperidine-2,6-dione]
ER
  DC50: < 10 nM
[1]; 96 h
  pIC50: > 9.00

## COc1cc(N2CCC3(CC2)CC(CN2CCN4c5cc6c(cc5OC[C@@H]4C2)C(=O)N(C2CCC(=O)NC2=O)C6)C3)ccc1[C@@H]1c2[nH]c3ccccc3c2C[C@@H](C)N1CC(F)F (stereo partly drawn) [Compound B141, 3-((S)-3-((7-(4-((1R,3R)-2-(2,2-difluoroethyl)-3-methyl-2,3,4,9-tetrahydro-1H-pyrido[3,4-b]indol-1-yl)-3-methoxyphenyl)-7-azaspiro[3.5]nonan-2-yl)methyl)-8-oxo-1,2,3,4,4a,5,8,10-octahydro-9H-pyrazino[1′,2′:4,5][1,4]oxazino[2,3-f]isoindol-9-yl)piperidine-2,6-dione]
ER
  DC50: < 10 nM
[1]; 96 h
  pIC50: 8.00 to 9.00

## COc1cc(N2CCC3(CC2)CC(CN2CCN4c5cc6c(cc5OC[C@@H]4C2)C(=O)N(C2CCC(=O)NC2=O)C6)CO3)ccc1[C@@H]1c2[nH]c3ccccc3c2C[C@@H](C)N1CC(F)F (stereo partly drawn) [Compound B142, 3-((4aS)-3-((8-(4-((1R,3R)-2-(2,2-difluoroethyl)-3-methyl-2,3,4,9-tetrahydro-1H-pyrido[3,4-b]indol-1-yl)-3-methoxyphenyl)-1-oxa-8-azaspiro[4.5]decan-3-yl)methyl)-8-oxo-1,2,3,4,4a,5,8,10-octahydro-9H-pyrazino[1′,2′:4,5][1,4]oxazino[2,3-f]isoindol-9-yl)piperidine-2,6-dione]
ER
  DC50: 10 to 100 nM
[1]; 96 h
  pIC50: > 9.00

## COc1cc(N2CCC3(CC2)CC(CN2CCN4c5ccc6c(c5OC[C@H]4C2)CN(C2CCC(=O)NC2=O)C6=O)CO3)ccc1[C@@H]1c2[nH]c3ccccc3c2C[C@@H](C)N1CC(F)F (stereo partly drawn) [Compound B143, 3-((5aR)-7-((8-(4-((1R,3R)-2-(2,2-difluoroethyl)-3-methyl-2,3,4,9-tetrahydro-1H-pyrido[3,4-b]indol-1-yl)-3-methoxyphenyl)-1-oxa-8-azaspiro[4.5]decan-3-yl)methyl)-1-oxo-1,3,5,5a,6,7,8,9-octahydro-2H-pyrazino[1′,2′:4,5][1,4]oxazino[2,3-e]isoindol-2-yl)piperidine-2,6-dione]
ER
  DC50: < 10 nM
[1]; 96 h
  pIC50: > 9.00

## COc1cc(N2CCC3(CC2)CC(CN2CCN4c5ccc6c(c5OC[C@H]4C2)CN(C2CCC(=O)NC2=O)C6=O)CO3)ccc1[C@@H]1c2[nH]c3ccccc3c2C[C@@H](C)N1CC(F)F (stereo partly drawn) [Compound B144, (3S)-3-((5aR)-7-((8-(4-((1R,3R)-2-(2,2-difluoroethyl)-3-methyl-2,3,4,9-tetrahydro-1H-pyrido[3,4-b]indol-1-yl)-3-methoxyphenyl)-1-oxa-8-azaspiro[4.5]dccan-3-yl)methyl)-1-oxo-1,3,5,5a,6,7,8,9-octahydro-2H-pyrazino[1′,2′:4,5][1,4]oxazino[2,3-e]isoindol-2-yl)piperidine-2,6-dione]
ER
  DC50: < 10 nM
[1]
  pIC50: > 9.00
